Experimental data from patent US9096565B2, “Inhibitors of histone deacetylase” (MethylGene Inc., priority 2007, dated 2015).

These compounds were tested against one or more of HDAC-4, HDAC-5, HDAC-6, HDAC-7, HDAC-8, HDAC-9, HDAC-10 and HDAC-11 (assay: Inhibition of histone deacetylase enzymatic activity (summary statement over isoforms)). Details: Table 3, selected examples; HDAC isoform not given.
Assay type: biochemical
How it was run: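 Activity was measured as deacetylation of the fluorogenic substrate Boc-Lys(trifluoroacetyl)-AMC over 20-30 min at 37 °C, after a 5 min room-temperature preincubation of enzyme with compound. Trypsin (1 mg/mL) with a reference HDAC inhibitor ended the reaction.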

`O=C(Nc1cccc(C(C(=O)NO)c2ccccc2)c1)C1CCCCC1` (stereo not shown) [Compound 2-58, N-(3-(2-(hydroxyamino)-2-oxo-1-phenylethyl)phenyl)cyclohexanecarboxamide] and `Cc1cccc(C(=O)N2CCCN(C(C(=O)NO)c3ccccc3)CC2)c1` (stereo not shown) [Compound 2-29, N-hydroxy-2-(4-(3-methylbenzoyl)-1,4-diazepan-1-yl)-2-phenylacetamide] fall in the same range of IC50: 1000 to 15000 nM for the first, 1000 to 15000 nM for the second.

`O=C(Nc1ccc(C(C(=O)NO)c2ccccc2)cc1)c1ccnc(Cl)c1` (stereo not shown) [Compound 2-74, 2-chloro-N-(4-(2-(hydroxyamino)-2-oxo-1-phenylethyl)phenyl)isonicotinamide] and `CN(C)c1ccc(-c2ccc(C(C(=O)NO)c3ccccc3)cc2)cc1` (stereo not shown) [Compound 5-21, 2-(4′-(dimethylamino)biphenyl-4-yl)-N-hydroxy-2-phenylacetamide] cannot be ordered by IC50: under 1000 nM for the first, under 1000 nM for the second.

`O=C(NO)C(c1ccccc1)c1nnc(-c2cccs2)s1` (stereo not shown) [Compound 5-4, N-hydroxy-2-phenyl-2-(5-(thiophen-2-yl)-1,3,4-thiadiazol-2-yl)acetamide] and `COc1ccccc1COc1ccc(C(C(=O)NO)c2ccccc2)cc1` (stereo not shown) [Compound 5-109, N-hydroxy-2-(4-(2-methoxybenzyloxy)phenyl)-2-phenylacetamide] cannot be ordered by IC50: under 1000 nM for the first, under 1000 nM for the second.

`COc1ccc(-c2ccc(C(C(=O)NO)c3ccccc3)cc2)cc1` (stereo not shown) [Compound 5-9, N-hydroxy-2-(4′-methoxybiphenyl-4-yl)-2-phenylacetamide] and `CCc1ccc(-c2cccc(C(C(=O)NO)c3ccccc3)c2)cc1` (stereo not shown) [Compound 2-102, 2-(4′-ethylbiphenyl-3-yl)-N-hydroxy-2-phenylacetamide] cannot be ordered by IC50: under 1000 nM for the first, under 1000 nM for the second.

First: O=C(NO)C(c1ccccc1)c1ccc(OCCOc2ccccc2)cc1 (stereo not shown) [Compound 3-64, N-hydroxy-2-(4-(2-phenoxyethoxy)phenyl)-2-phenylacetamide]
Second: CCCC(=O)N1CCN(C(C(=O)NO)c2ccccc2)CC1 (stereo not shown) [Compound 2-23, 2-(4-butyrylpiperazin-1-yl)-N-hydroxy-2-phenylacetamide]
The IC50 of the first is lower: under 1000 nM for the first, 1000 to 15000 nM for the second.

First: COc1ccc(-c2ccnc(SC(C(=O)NO)c3ccccc3)n2)cc1 (stereo not shown) [Compound 6-42, N-hydroxy-2-(4-(4-methoxyphenyl)pyrimidin-2-ylthio)-2-phenylacetamide]
Second: CN(C)CCCOc1cccc(C(C(=O)NO)c2ccccc2)c1 (stereo not shown) [Compound 3-15, 2-(3-(3-(dimethylamino)propoxy)phenyl)-N-hydroxy-2-phenylacetamide]
The IC50 of the first is higher: 1000 to 15000 nM for the first, under 1000 nM for the second. The second is the more potent here.

Compared with `O=C(NO)C(c1ccccc1)N1CCC(c2nc(-c3ccc4c(c3)OCO4)no2)CC1` (stereo not shown) [Compound 2-44, 2-(4-(3-(benzo[d][1,3]dioxol-5-yl)-1,2,4-oxadiazol-5-yl)piperidin-1-yl)-N-hydroxy-2-phenylacetamide], `O=C(NO)C(c1ccccc1)n1cc(CCc2ccccc2)nn1` (stereo not shown) [Compound 1-27, N-hydroxy-2-(4-phenethyl-1H-1,2,3-triazol-1-yl)-2-phenylacetamide] is higher in IC50: under 1000 nM for the first, 1000 to 15000 nM for the second.

`O=C(NO)C(c1ccccc1)[S+]([O-])c1ccccc1` (stereo not shown) [Compound 5-6, N-hydroxy-2-phenyl-2-(phenylsulfinyl)acetamide] and `C=CCOc1cccc(C(C(=O)NO)c2ccccc2)c1` (stereo not shown) [Compound 3-24, 2-(3-(allyloxy)phenyl)-N-hydroxy-2-phenylacetamide] fall in the same range of IC50: 1000 to 15000 nM for the first, 1000 to 15000 nM for the second.

`O=C(NO)C(Sc1ccnc2cc(C(F)(F)F)ccc12)c1ccccc1` (stereo not shown) [Compound 2-49, N-hydroxy-2-phenyl-2-(7-(trifluoromethyl)quinolin-4-ylthio)acetamide] and `O=C(NO)C(c1ccccc1)c1ccc(CCCCc2ccccc2)cc1` (stereo not shown) [Compound 5-68, N-hydroxy-2-phenyl-2-(4-(4-phenylbutyl)phenyl)acetamide] cannot be ordered by IC50: under 1000 nM for the first, under 1000 nM for the second.

`O=C(NO)C(c1ccccc1)c1ccc(N2CCN(C(=O)OCc3ccccc3)CC2)cc1` (stereo not shown) [Compound 5-75, benzyl 4-(4-(2-(hydroxyamino)-2-oxo-1-phenylethyl)phenyl)piperazine-1-carboxylate] and “2-(4-(benzo[d][1,3]dioxol-5-ylmethylbenzo[d][1,3]dioxol-5-ylmethoxy)phenyl)-N-hydroxy-2-phenylacetamide [Compound 3-11]” cannot be ordered by IC50: under 1000 nM for the first, under 1000 nM for the second.

`O=C(NO)C(c1ccccc1)c1ccc(N2CCN(c3ccccc3)CC2)cc1` (stereo not shown) [Compound 5-26, N-hydroxy-2-phenyl-2-(4-(4-phenylpiperazin-1-yl)phenyl)acetamide] and `COc1ccc(-c2ccc(C(C(=O)NO)c3ccccc3)cc2)cc1OC` (stereo not shown) [Compound 2-114, 2-(3′,4′-dimethoxybiphenyl-4-yl)-N-hydroxy-2-phenylacetamide] cannot be ordered by IC50: under 1000 nM for the first, under 1000 nM for the second.

`CN(C)c1ccc(C(C(=O)NO)c2ccc(-c3ccccc3)cc2)cc1` (stereo not shown) [Compound 1-40, 2-(biphenyl-4-yl)-2-(4-(dimethylamino)phenyl)-N-hydroxyacetamide] and `O=C(NO)C(c1ccccc1)N1CC=C(c2c[nH]c3ccccc23)CC1` (stereo not shown) [Compound 5-7, 2-(4-(1H-indol-3-yl)-5,6-dihydropyridin-1(2H)-yl)-N-hydroxy-2-phenylacetamide] cannot be ordered by IC50: under 1000 nM for the first, under 1000 nM for the second.

`O=C(NO)C(c1ccccc1)N1CCN(S(=O)(=O)c2ccccc2)CC1` (stereo not shown) [Compound 5-8, N-hydroxy-2-phenyl-2-(4-(phenylsulfonyl)piperazin-1-yl)acetamide] and `O=C(Nc1ccc(C(C(=O)NO)c2ccccc2)cc1)c1cccc(Cl)c1` (stereo not shown) [Compound 2-72, 3-chloro-N-(4-(2-(hydroxyamino)-2-oxo-1-phenylethyl)phenyl)benzamide] cannot be ordered by IC50: under 1000 nM for the first, under 1000 nM for the second.

Compared with `Cc1occc1SC(C(=O)NO)c1ccccc1` (stereo not shown) [Compound 2-46, N-hydroxy-2-(2-methylfuran-3-ylthio)-2-phenylacetamide], `O=C(NO)C(c1ccc(N2CCOCC2)cc1)c1cccc(O)c1` (stereo not shown) [Compound 6-23, N-hydroxy-2-(3-hydroxyphenyl)-2-(4-morpholinophenyl)acetamide] is lower in IC50: 1000 to 15000 nM for the first, under 1000 nM for the second. The second is the more potent here.

`O=C(CC(c1ccccc1)c1ccccc1)NO` [Compound 1-6, N-hydroxy-3,3-diphenylpropanamide] and `O=C(CCC1CCCCC1)Nc1ccc(C(C(=O)NO)c2ccccc2)cc1` (stereo not shown) [Compound 2-70, 3-cyclohexyl-N-(4-(2-(hydroxyamino)-2-oxo-1-phenylethyl)phenyl)propanamide] cannot be ordered by IC50: under 1000 nM for the first, under 1000 nM for the second.

`COCCOCCOc1cccc(C(C(=O)NO)c2ccccc2)c1` (stereo not shown) [Compound 3-89, N-hydroxy-2-(3-(2-(2-methoxyethoxy)ethoxy)phenyl)-2-phenylacetamide] and `CN(C)C(=O)c1ccc(-c2ccc(C(C(=O)NO)c3ccccc3)cc2)cc1` (stereo not shown) [Compound 2-116, 4′-(2-(hydroxyamino)-2-oxo-1-phenylethyl)-N,N-dimethylbiphenyl-4-carboxamide] cannot be ordered by IC50: under 1000 nM for the first, under 1000 nM for the second.

`COc1cccc(COc2ccc(C(C(=O)NO)c3ccccc3)cc2)c1` (stereo not shown) [Compound 2-14, N-hydroxy-2-(4-(3-methoxybenzyloxy)phenyl)-2-phenylacetamide] and `O=C(NO)C(c1ccccc1)N1CCN(c2ncccn2)CC1` (stereo not shown) [Compound 1-36, N-hydroxy-2-phenyl-2-(4-(pyrimidin-2-yl)piperazin-1-yl)acetamide] cannot be ordered by IC50: under 1000 nM for the first, under 1000 nM for the second.

`O=C(NO)C(c1ccccc1)c1cccc(Nc2ccccc2)c1` (stereo not shown) [Compound 3-73, N-hydroxy-2-phenyl-2-(3-(phenylamino)phenyl)acetamide] and `O=C(NO)C(Oc1ccc(F)cc1Cl)c1ccccc1` (stereo not shown) [Compound 7-33, 2-(2-chloro-4-fluorophenoxy)-N-hydroxy-2-phenylacetamide] fall in the same range of IC50: 1000 to 15000 nM for the first, 1000 to 15000 nM for the second.

First: O=C(NO)C(c1ccccc1)n1cccc1 (stereo not shown) [Compound 1-13, N-hydroxy-2-phenyl-2-(1H-pyrrol-1-yl)acetamide]
Second: O=C(NO)C(c1ccccc1)c1ccc(OC2CCCC2)cc1 (stereo not shown) [Compound 3-53, 2-(4-(cyclopentyloxy)phenyl)-N-hydroxy-2-phenylacetamide]
The IC50 of the first is higher: 1000 to 15000 nM for the first, under 1000 nM for the second. The second is the more potent here.

Compared with `O=C(NO)C(c1cccs1)c1cccs1` [Compound 1-23, N-hydroxy-2,2-di(thiophen-2-yl)acetamide], `O=C(NO)C(c1ccccc1)c1ccc(N2C[C@@H]3C[C@H]2CO3)cc1` (stereo partly drawn) [Compound 5-78, 2-(4-((1S,4S)-2-oxa-5-azabicyclo[2.2.1]heptan-5-yl)phenyl)-N-hydroxy-2-phenylacetamide] is lower in IC50: 1000 to 15000 nM for the first, under 1000 nM for the second.

First: O=C(NO)C(c1ccccc1)c1ccc(-c2cccc3ccccc23)cc1 (stereo not shown) [Compound 5-13, N-hydroxy-2-(4-(naphthalen-1-yl)phenyl)-2-phenylacetamide]
Second: CCC(CC)COc1cccc(C(C(=O)NO)c2ccccc2)c1 (stereo not shown) [Compound 3-31, 2-(3-(2-ethylbutoxy)phenyl)-N-hydroxy-2-phenylacetamide]
The IC50 of the first is lower: under 1000 nM for the first, 1000 to 15000 nM for the second.

`O=C(NO)C(c1ccccc1)c1ccc(NCc2ccccc2)cc1` (stereo not shown) [Compound 2-78, 2-(4-(benzylamino)phenyl)-N-hydroxy-2-phenylacetamide] and `O=C(NO)C(c1ccc(N2CCOCC2)cc1)c1ccsc1` (stereo not shown) [Compound 5-112, N-hydroxy-2-(4-morpholinophenyl)-2-(thiophen-3-yl)acetamide] cannot be ordered by IC50: under 1000 nM for the first, under 1000 nM for the second.

First: O=C(NO)C(c1ccccc1)c1nnc(-c2ccccc2-c2ccccc2)s1 (stereo not shown) [Compound 5-39, 2-(5-(biphenyl-2-yl)-1,3,4-thiadiazol-2-yl)-N-hydroxy-2-phenylacetamide]
Second: CSc1cccc(C(C(=O)NO)c2ccc(N3CCOCC3)cc2)c1 (stereo not shown) [Compound 6-25, N-hydroxy-2-(3-(methylthio)phenyl)-2-(4-morpholinophenyl)acetamide]
The IC50 of the first is higher: 1000 to 15000 nM for the first, under 1000 nM for the second.

Compared with `CCOc1cccc(C(C(=O)NO)c2ccccc2)c1` (stereo not shown) [Compound 3-22, 2-(3-ethoxyphenyl)-N-hydroxy-2-phenylacetamide], `O=C(NO)C(Sc1ccncc1)c1ccccc1` (stereo not shown) [Compound 2-45, N-hydroxy-2-phenyl-2-(pyridin-4-ylthio)acetamide] is higher in IC50: under 1000 nM for the first, 1000 to 15000 nM for the second.

`O=C(NO)C1c2ccccc2CCc2ccccc21` [Compound 5-31] was tested, and the IC50 was 1000 to 15000 nM.
